Reference: ChEMBL document CHEMBL3430912, “GSK Tres Cantos Anti-Kinetoplastid Screening (TCAKS) Data”

What was measured:
Trypanosoma cruzi [1] = experiment: GSK_TCAKS: pIC50 Trypanosoma cruzi viability assay using beta-GAL activity. This assay was run at single shot at 5uM compound concentration per well. The biological reagents consisted of NIH-3T3 host cells and trypomastigotes parasitic cells; both cell types were set to a 3.3 * 10^5 cells/mL dilution in assay DMEM by means of a CASY cell counter device using a 60um capillary. 6 uL of the mixture were dispensed per well (about 1 * 10^3 host-cells and 1 * 10^3 parasites) with a Multidrop Combi dispenser. […] In all wells, the percentage of DMSO never exceeded 0.5%. Plates incubated for four days at 37C, 5% CO2. The substrate used for the assay fluorescence intensity (FLINT) readout was resorufin-beta-D-galactopiranoside (Sigma-Aldrich) at 5uM per well. It was diluted in PBS supplemented with the soft detergent Igepal (Fluka).; type: functional, organism-based, Mus musculus; conditions: Tulahuen, NIH3T3
Trypanosoma cruzi [2] = experiment: (§1) GSK_TCAKS: pIC50 Trypanosoma cruzi Imaging: Infected Cells. […] Cells were then washed once with PBS before infection. T. cruzi trypomastigotes, collected at days 5 to 8 after infection from LLC-MK2 parasite infected cultures, were allowed to swim out for 4h at 37C from a centrifuged pellet (2,500 rpm/10 min/room temperature). Trypomastigotes were then collected and counted in a CASY Cell Counter. Trypomastigotes, in supplemented DMEM, were added to H9c2 cultures in a multiplicity of infection of 1 and incubated for 18 h. Cells were washed once with PBS before incubation of the infected H9c2 monolayer with trypsin (Life-Technologies) to detach cells from the flask. Cells were counted in a CASY Cell Counter using a 150 um capillary and their density set at 5 * 10^4 cells per mL in supplemented assay DMEM. Infected H9c2 were dispensed into 384-well poly-lysine coated assay plates at 50uL per well using a Multidrop Combi dispenser. After seeding them, the plates were incubated at 37C, 5% CO2 for 72h. Cultures were then fixed and stained by addition of 50 uL of a solution containing 8% formaldehyde and 4 uM DRAQ5 DNA dye (BioStatus, UK) per well. […] Five images were collected per well for reliable statistical analysis. Automated image analysis was performed with a script developed on Acapella High Content Imaging and Analysis Software (PerkinElmer). Output: percentage of infected cells per well as a second infection marker.; type: functional, organism-based, Rattus norvegicus; conditions: H9c2, 4 h
Trypanosoma cruzi [3] = experiment: GSK_TCAKS: pIC50 Trypanosoma cruzi Imaging: Amastigotes/Cell. […] Cells were then washed once with PBS before infection. T. cruzi trypomastigotes, collected at days 5 to 8 after infection from LLC-MK2 parasite infected cultures, were allowed to swim out for 4h at 37C from a centrifuged pellet (2,500 rpm/10 min/room temperature). Trypomastigotes were then collected and counted in a CASY Cell Counter. Trypomastigotes, in supplemented DMEM, were added to H9c2 cultures in a multiplicity of infection of 1 and incubated for 18 h. Cells were washed once with PBS before incubation of the infected H9c2 monolayer with trypsin (Life-Technologies) to detach cells from the flask. Cells were counted in a CASY Cell Counter using a 150 um capillary and their density set at 5 * 10^4 cells per mL in supplemented assay DMEM. Infected H9c2 were dispensed into 384-well poly-lysine coated assay plates at 50uL per well using a Multidrop Combi dispenser. After seeding them, the plates were incubated at 37C, 5% CO2 for 72h. Cultures were then fixed and stained by addition of 50 uL of a solution containing 8% formaldehyde and 4 uM DRAQ5 DNA dye (BioStatus, UK) per well. […] Five images were collected per well for reliable statistical analysis. Automated image analysis was performed with a script developed on Acapella High Content Imaging and Analysis Software (PerkinElmer). Output: number of amastigotes per cell as infection level measurement.; type: functional, organism-based, Rattus norvegicus; conditions: H9c2, 4 h
Trypanosoma cruzi [4] = experiment: as §1, with “H2C9” for “Trypanosoma cruzi”, “H9c2 Host Cardiomyocytes.” for “Infected Cells.”, “Number” for “percentage”, “H9c2 Host Cardiomyocytes nuclei to determine drug-related cytotoxicity.” for “infected cells per well as a second infection marker.”; type: functional, organism-based, Rattus norvegicus; conditions: H9c2, 4 h
Leishmania donovani [5] = experiment: GSK_TCAKS: pIC50 Leishmania donovani viability assay using fluorescence intensity. Assay plates (1536-well) were prepared by adding 30nL per well of compound. For single shot assay, the final compound concentration was 5uM. […] Briefly, eGFP LdBOB axenic amastigotes were harvested, fixed and counted in a CASY cell counter (Roche-Applied Science). A final concentration of 1.5 * 10^5 cells per well were prepared in amastigote media containing 500 U/mL penicillin/streptomycin (Invitrogen) and 6uL was dispensed to each experimental well using a Multidrop Combi dispenser (Thermo Scientific). 6uL of assay media was dispensed to control columns used as reference for 100% compound response. Following incubation for 72 h at 37C, 5% CO2, 2 uL of resazurin was added to each well at a final concentration of 0.5 mM in phosphate buffered saline (PBS) with IGEPAL (Sigma-Aldrich), 0.05% (v/v).; type: functional, organism-based
Leishmania donovani [6] = experiment: (§2) GSK_TCAKS: pIC50 Leishmania donovani Imaging: Infected Macrophages. Assay plates (384-well) were prepared by adding 250nL of compound to each well. For single shot assay, the final compound concentration was 5 uM. […] Automated image analysis was performed with a script developed on Acapella High Content Imaging and Analysis Software (PerkinElmer). Output: Percent of infected macrophage cells were reported for each well.; type: functional, organism-based, Homo sapiens; conditions: THP-1
Leishmania donovani [7] = experiment: as §2, with “Amastigotes/Macrophages.” for “Infected Macrophages.”, “Average number” for “Percent”, “amastigotes per” for “infected”, “cell” for “cells”; type: functional, organism-based, Homo sapiens; conditions: THP-1
Leishmania donovani [8] = experiment: as §2, with “THP-1 Host” for “Infected”, “THP-1 cell count” for “Percent of infected macrophage cells”; type: functional, organism-based, Homo sapiens
[9] = tested on: Trypanosoma brucei brucei; experiment: GSK_TCAKS: pIC50 Trypanosoma brucei viability assay using fluorescence intensity. Assay plates (1536-well) were prepared by dispensing 25nL of compound solution per well using an Echo acoustic dispenser (Labcyte).; type: functional, organism-based; conditions: Lister 427, 2 h
[10] = tested on: Trypanosoma brucei brucei; experiment: GSK_TCAKS: pIC50 Trypanosoma brucei viability assay using luminiscence. Assay plates (1536-well) were prepared. T. brucei cultures were harvested and counted in a CASY cell counter. A parasite suspension was prepared at a final concentration of 5 * 10^4 cells/mL in complete HMI9 medium and 6uL was dispensed to all wells containing compounds using a Multidrop Combi dispenser. 6uL of HMI9 media with 0.4% DMSO were dispensed to control columns. Plates were incubated for 24 h at 37C, 5% CO2 then tempered for 10 min at room temperature. ATP content was quantified by adding 4 uL of CellTiter-Glo Reagent (Promega) according to the manufacturer's instructions. Luminescence was measured using a ViewLux.; type: functional, organism-based; conditions: Lister 427, CASY
[11] = GSK_TCAKS: pIC50 HepG2 human cell line viability assay using luminiscence. […] Seeding density was checked to ensure that new mono-layers were not more than 50% confluent at the time of harvesting. Cell suspension was added to 500 mL of the same medium at a final density of 1.2 * 10^5 cells/mL. This cell suspension was dispensed (25 uL, 3000 cells per well) into 384-well clear-bottom plates using a Multidrop Combi dispenser. Prior to addition of the cell suspension, the screening compounds (250 nL) were pre-dispensed into the plates with an Echo liquid handler. Plates were incubated for 48 h at 37C, 5% CO2. After incubation, plates equilibrated at room temperature for 30 min before proceeding to develop the luminescent signal. The signal developer, CellTiter-Glo Reagent, was allowed to equilibrate at room temperature for 30 min and added to the plates (25uL per well) using a Multidrop Combi dispenser. Plates were left for 10 min at room temperature for stabilization and then read using a ViewLux.; type: toxicity, cell-based
[12] = target: Sterol 14-alpha demethylase (Trypanosoma cruzi (strain CL Brener), UniProt Q7Z1V1); experiment: GSK_TCAKS: pIC50 CYP51 from Trypanosoma cruzi.; type: functional
Chain of Sterol 14-alpha demethylase (Q7Z1V1 whole entry): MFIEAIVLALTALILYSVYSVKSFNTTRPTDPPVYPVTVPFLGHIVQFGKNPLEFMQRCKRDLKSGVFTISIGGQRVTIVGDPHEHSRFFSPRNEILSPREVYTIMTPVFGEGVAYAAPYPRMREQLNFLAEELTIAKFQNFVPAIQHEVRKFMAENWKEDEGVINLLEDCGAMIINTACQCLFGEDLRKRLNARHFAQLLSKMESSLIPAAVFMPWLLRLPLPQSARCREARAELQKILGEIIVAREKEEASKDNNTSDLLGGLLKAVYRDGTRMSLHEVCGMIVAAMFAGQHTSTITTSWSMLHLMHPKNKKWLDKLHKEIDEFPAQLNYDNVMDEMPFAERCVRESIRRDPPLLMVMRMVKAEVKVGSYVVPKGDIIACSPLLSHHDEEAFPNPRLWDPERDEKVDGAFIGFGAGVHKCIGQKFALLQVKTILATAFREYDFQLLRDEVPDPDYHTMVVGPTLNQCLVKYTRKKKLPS

| Structure (SMILES) | IC50 (Trypanosoma cruzi [1]) [µM] | IC50 (Trypanosoma cruzi [2]) [µM] | IC50 (Trypanosoma cruzi [3]) [µM] | IC50 (Trypanosoma cruzi [4]) [µM] | IC50 (Leishmania donovani [5]) [µM] | IC50 (Leishmania donovani [6]) [µM] | IC50 (Leishmania donovani [7]) [µM] | IC50 (Leishmania donovani [8]) [µM] | IC50 [9] [µM] | IC50 [10] [µM] | IC50 at 48 h [11] [µM] | IC50 [12] [µM] |
| --- | --- | --- | --- | --- | --- | --- | --- | --- | --- | --- | --- | --- |
| Cc1nn(-c2ccccc2)nc1CNC(=O)CN(Cc1ccccn1)Cc1ccccn1 | 3.98 | 10 | 3.16 | > 63.1 | 7.94 | 5.01 | 5.01 | > 63.1 | 31.6 | 10 | > 126 | 25.1 |
| O=C(CN(Cc1ccccn1)Cc1ccccn1)NCc1ccc(-c2csnn2)cc1 | 3.98 | 63.1 | 7.94 | > 79.4 | 7.94 | 5.01 | 5.01 | > 79.4 | 12.6 | 7.94 | 25.1 | 39.8 |
| O=C(CSc1nnc(-c2ccc3c(c2)OCO3)o1)N(Cc1ccco1)CC(F)(F)F | 10 | 3.16 | 2.51 | > 50.1 | 15.8 | 7.94 | 3.16 | > 50.1 | > 39.8 | > 39.8 | > 100 | 25.1 |
| N#Cc1ccccc1S(=O)(=O)N1CCN(C(=O)CNC(=O)c2ccc3c(c2)OCO3)CC1 | 15.8 | 1 | 0.631 | > 50.1 | 0.631 | 5.01 | 1.58 | > 50.1 | > 39.8 | > 39.8 | > 100 | 79.4 |
| COc1ccc(NC(=O)c2ccc(NC(=O)CN(c3ccccc3C)S(C)(=O)=O)cc2)cc1 | 31.6 | 25.1 | 20 | 25.1 | > 50.1 | > 50.1 | 7.94 | > 50.1 | 0.2 | 0.794 | 39.8 | 6.31 |
| COc1ccc(S(=O)(=O)Nc2ccc(C(=O)Nc3nc(-c4ccccn4)cs3)cc2)cc1 | 0.891 | 0.794 | 0.631 | 6.31 | 1 | 0.398 | 0.158 | 10 | 0.794 | 0.631 | 63.1 | 0.398 |
